Publication PMC9516332 (Frontiers in Oncology, 2022)
Read-outs that look alike come from different tables or passages of the source.

Assays:
134 cancer cell lines [1] = tested on: 134 cancer cell lines
134 cancer cell lines [2] = experiment: Cell viability assay (ATPlite, 72 hours), IC50 on cancer cell line panel

For `FC(F)(F)c1ccc(CNc2ccc(Cc3c[nH]c4ncc(Cl)cc34)cn2)cn1` [pexidartinib], the IC50 (134 cancer cell lines [1]) was greater than 31.6 µM, the IC50 (134 cancer cell lines [2]; HEC-6, read-out: IC50 in cell proliferation assay, HEC-6 cell line (EGFR p.A289V)) was greater than 31.6 µM and the IC50 (134 cancer cell lines [2]; Homo sapiens, 769-P, read-out: IC50 in cell proliferation assay, cell line 769-P) was greater than 31.6 µM. The IC50 (134 cancer cell lines [2]; Homo sapiens, 786-0, read-out: IC50 in cell proliferation assay, cell line 786-O) was greater than 31.6 µM, the IC50 (134 cancer cell lines [2]; Homo sapiens, A 172, read-out: IC50 in cell proliferation assay, cell line A-172) was greater than 31.6 µM and the IC50 (134 cancer cell lines [2]; Homo sapiens, A204, read-out: IC50 in cell proliferation assay, cell line A-204) was 0.935 µM. For the same compound, the IC50 (134 cancer cell lines [2]; Homo sapiens, A498, read-out: IC50 in cell proliferation assay, cell line A-498) was greater than 31.6 µM, the IC50 (134 cancer cell lines [2]; Homo sapiens, A549, read-out: IC50 in cell proliferation assay, cell line A-549) was greater than 31.6 µM and the IC50 (134 cancer cell lines [2]; Homo sapiens, A704, read-out: IC50 in cell proliferation assay, cell line A-704) was greater than 31.6 µM. It also gave an IC50 (134 cancer cell lines [2]; Homo sapiens, A-375, read-out: IC50 in cell proliferation assay, cell line A-375 (BRAF p.V600E)) greater than 31.6 µM, an IC50 (134 cancer cell lines [2]; Homo sapiens, A-427, read-out: IC50 in cell proliferation assay, cell line A-427) of 24.1 µM and an IC50 (134 cancer cell lines [2]; Homo sapiens, ACHN, read-out: IC50 in cell proliferation assay, cell line ACHN) greater than 31.6 µM. For the same compound, the IC50 (134 cancer cell lines [2]; Homo sapiens, AN3-CA, read-out: IC50 in cell proliferation assay, cell line AN3-CA (FGFR2 p.N549K)) was 25.3 µM, the IC50 (134 cancer cell lines [2]; Homo sapiens, ASPC1, read-out: IC50 in cell proliferation assay, cell line AsPC-1) was greater than 31.6 µM and the IC50 (134 cancer cell lines [2]; Homo sapiens, AU565, read-out: IC50 in cell proliferation assay, cell line AU565 (ERBB2 amplification)) was 25.4 µM. For the same compound, the IC50 (134 cancer cell lines [2]; Homo sapiens, BT-20, read-out: IC50 in cell proliferation assay, cell line BT-20) was greater than 31.6 µM, the IC50 (134 cancer cell lines [2]; Homo sapiens, BT-474, read-out: IC50 in cell proliferation assay, cell line BT-474 (ERBB2 amplification)) was greater than 31.6 µM and the IC50 (134 cancer cell lines [2]; Homo sapiens, BT-549, read-out: IC50 in cell proliferation assay, cell line BT-549) was greater than 31.6 µM. The IC50 (134 cancer cell lines [2]; Homo sapiens, BXPC-3, read-out: IC50 in cell proliferation assay, cell line BxPC-3) was greater than 31.6 µM, the IC50 (134 cancer cell lines [2]; Homo sapiens, C-33-A, read-out: IC50 in cell proliferation assay, cell line C-33 A) was greater than 31.6 µM and the IC50 (134 cancer cell lines [2]; Homo sapiens, CAL-27, read-out: IC50 in cell proliferation assay, cell line CAL-27) was greater than 31.6 µM. For the same compound, the IC50 (134 cancer cell lines [2]; Homo sapiens, CCF-STTG1, read-out: IC50 in cell proliferation assay, cell line CCF-STTG1) was greater than 31.6 µM, the IC50 (134 cancer cell lines [2]; Homo sapiens, CCRF-CEM, read-out: IC50 in cell proliferation assay, cell line CCRF-CEM) was greater than 31.6 µM and the IC50 (134 cancer cell lines [2]; Homo sapiens, COLO 205, read-out: IC50 in cell proliferation assay, cell line COLO 205 (BRAF p.V600E)) was greater than 31.6 µM. It also gave an IC50 (134 cancer cell lines [2]; Homo sapiens, COLO-829, read-out: IC50 in cell proliferation assay, cell line COLO 829 (BRAF p.V600E)) greater than 31.6 µM, an IC50 (134 cancer cell lines [2]; Homo sapiens, DLD-1, read-out: IC50 in cell proliferation assay, cell line DLD-1) greater than 31.6 µM and an IC50 (134 cancer cell lines [2]; Homo sapiens, DU-4475, read-out: IC50 in cell proliferation assay, cell line DU4475 (BRAF p.V600E)) greater than 31.6 µM. It also gave an IC50 (134 cancer cell lines [2]; Homo sapiens, Daoy, read-out: IC50 in cell proliferation assay, cell line Daoy) greater than 31.6 µM, an IC50 (134 cancer cell lines [2]; Homo sapiens, DoTc2-4510, read-out: IC50 in cell proliferation assay, cell line DoTc2 4510) greater than 31.6 µM and an IC50 (134 cancer cell lines [2]; Homo sapiens, EOL1, read-out: IC50 in cell proliferation assay, cell line EoL-1 (FIP1L1-PDGFRA)) of 0.01 µM. The IC50 (134 cancer cell lines [2]; Homo sapiens, FaDu, read-out: IC50 in cell proliferation assay, cell line FaDu) was greater than 31.6 µM, the IC50 (134 cancer cell lines [2]; Homo sapiens, G-361, read-out: IC50 in cell proliferation assay, cell line G-361 (BRAF p.V600E)) was 23.6 µM and the IC50 (134 cancer cell lines [2]; Homo sapiens, HCC827, read-out: IC50 in cell proliferation assay, cell line HCC827 (EGFR exon19del)) was greater than 31.6 µM. The IC50 (134 cancer cell lines [2]; Homo sapiens, HCC4006, read-out: IC50 in cell proliferation assay, cell line HCC4006 (EGFR exon19del)) was greater than 31.6 µM, the IC50 (134 cancer cell lines [2]; Homo sapiens, HCT-15, read-out: IC50 in cell proliferation assay, cell line HCT 15) was greater than 31.6 µM and the IC50 (134 cancer cell lines [2]; Homo sapiens, HCT-116, read-out: IC50 in cell proliferation assay, cell line HCT 116) was greater than 31.6 µM. For the same compound, the IC50 (134 cancer cell lines [2]; Homo sapiens, HEC-1, read-out: IC50 in cell proliferation assay, HEC-1 cell line) was greater than 31.6 µM, the IC50 (134 cancer cell lines [2]; Homo sapiens, HEC-1B, read-out: IC50 in cell proliferation assay, HEC-1-B cell line (EGFR p.A864V)) was greater than 31.6 µM and the IC50 (134 cancer cell lines [2]; Homo sapiens, HL-60, read-out: IC50 in cell proliferation assay, HL-60 cell line) was greater than 31.6 µM. For the same compound, the IC50 (134 cancer cell lines [2]; Homo sapiens, HT, read-out: IC50 in cell proliferation assay, HT cell line) was greater than 31.6 µM, the IC50 (134 cancer cell lines [2]; Homo sapiens, HT-1080, read-out: IC50 in cell proliferation assay, HT-1080 cell line) was greater than 31.6 µM and the IC50 (134 cancer cell lines [2]; Homo sapiens, Hs746T, read-out: IC50 in cell proliferation assay, Hs 746.T cell line (MET exon14skip + amplification)) was greater than 31.6 µM. It also gave an IC50 (134 cancer cell lines [2]; Homo sapiens, Hs-578T, read-out: IC50 in cell proliferation assay, Hs 578T cell line) of 25.7 µM, an IC50 (134 cancer cell lines [2]; Homo sapiens, HuTu80, read-out: IC50 in cell proliferation assay, HuTu 80 cell line) of 22.8 µM and an IC50 (134 cancer cell lines [2]; Homo sapiens, J82, read-out: IC50 in cell proliferation assay, J82 cell line) greater than 31.6 µM. It also gave an IC50 (134 cancer cell lines [2]; Homo sapiens, Jurkat E6.1, read-out: IC50 in cell proliferation assay, Jurkat E6.1 cell line) greater than 31.6 µM, an IC50 (134 cancer cell lines [2]; Homo sapiens, K562, read-out: IC50 in cell proliferation assay, K-562 cell line) greater than 31.6 µM and an IC50 (134 cancer cell lines [2]; Homo sapiens, KATO III, read-out: IC50 in cell proliferation assay, KATO III cell line (FGFR2 amplification)) of 10.1 µM. It also gave an IC50 (134 cancer cell lines [2]; Homo sapiens, KG-1, read-out: IC50 in cell proliferation assay, KG-1 cell line (FGFR1OP2-FGFR1)) of 7.51 µM, an IC50 (134 cancer cell lines [2]; Homo sapiens, KLE, read-out: IC50 in cell proliferation assay, KLE cell line) greater than 31.6 µM and an IC50 (134 cancer cell lines [2]; Homo sapiens, KMS-11, read-out: IC50 in cell proliferation assay, KMS-11 cell line (FGFR3 p.Y373C)) greater than 31.6 µM. For the same compound, the IC50 (134 cancer cell lines [2]; Homo sapiens, KU812, read-out: IC50 in cell proliferation assay, Ku812 cell line) was greater than 31.6 µM, the IC50 (134 cancer cell lines [2]; Homo sapiens, Kasumi 1, read-out: IC50 in cell proliferation assay, Kasumi-1 cell line (KIT p.N822K)) was 0.228 µM and the IC50 (134 cancer cell lines [2]; Homo sapiens, LC-2-ad, read-out: IC50 in cell proliferation assay, LC-2/ad cell line (CCDC6-RET)) was greater than 31.6 µM. The IC50 (134 cancer cell lines [2]; Homo sapiens, LNCaP-Clone-FGC, read-out: IC50 in cell proliferation assay, LNCaP clone FGC cell line) was greater than 31.6 µM, the IC50 (134 cancer cell lines [2]; Homo sapiens, LS174T, read-out: IC50 in cell proliferation assay, LS174T cell line) was greater than 31.6 µM and the IC50 (134 cancer cell lines [2]; Homo sapiens, LS-411N, read-out: IC50 in cell proliferation assay, LS411N cell line (BRAF p.V600E)) was greater than 31.6 µM. The IC50 (134 cancer cell lines [2]; Homo sapiens, LoVo, read-out: IC50 in cell proliferation assay, LoVo cell line) was greater than 31.6 µM, the IC50 (134 cancer cell lines [2]; Homo sapiens, MCF7, read-out: IC50 in cell proliferation assay, MCF-7 cell line) was 18.1 µM and the IC50 (134 cancer cell lines [2]; Homo sapiens, MDA-MB-231, read-out: IC50 in cell proliferation assay, MDA-MB-231 cell line) was greater than 31.6 µM. For the same compound, the IC50 (134 cancer cell lines [2]; Homo sapiens, MDA-MB-453, read-out: IC50 in cell proliferation assay, MDA-MB-453 cell line) was greater than 31.6 µM, the IC50 (134 cancer cell lines [2]; Homo sapiens, MDA-MB-468, read-out: IC50 in cell proliferation assay, MDA-MB-468 cell line) was greater than 31.6 µM and the IC50 (134 cancer cell lines [2]; Homo sapiens, MG-63, read-out: IC50 in cell proliferation assay, MG-63 cell line) was greater than 31.6 µM. For the same compound, the IC50 (134 cancer cell lines [2]; Homo sapiens, MIA PaCa-2, read-out: IC50 in cell proliferation assay, MIA PaCa-2 cell line) was greater than 31.6 µM, the IC50 (134 cancer cell lines [2]; Homo sapiens, MKN-45, read-out: IC50 in cell proliferation assay, MKN45 cell line (MET amplification)) was greater than 31.6 µM and the IC50 (134 cancer cell lines [2]; Homo sapiens, MOLM-13, read-out: IC50 in cell proliferation assay, MOLM-13 cell line (FLT3 ITD)) was 0.191 µM. The IC50 (134 cancer cell lines [2]; Homo sapiens, MOLT-4, read-out: IC50 in cell proliferation assay, MOLT-4 cell line) was greater than 31.6 µM and the IC50 (134 cancer cell lines [2]; Homo sapiens, MV4-11, read-out: IC50 in cell proliferation assay, MV4-11 cell line (FLT3 ITD)) was 0.254 µM.
